Experimental findings from ChEMBL document CHEMBL1128959, “Quinoline-substituted dihydroindoles as cysLT1 (LTD4 receptor) antagonists” (Bioorg Med Chem Lett, 1996) are described below.

Each structure is given as a SMILES string.

The Ki is a measure of affinity in units of concentration, obtained from inhibition or displacement. The low end stands for higher affinity, the high end for lower affinity. For orientation: Inhibition means the drop in the measured response relative to a control, in per cent. For orientation: pKB means the KB on a negative log10 scale, so that one unit is a factor of ten. Higher therefore signals a small KB.

The target of one experiment is T1, Cysteinyl leukotriene receptor 1 (Cavia porcellus, UniProt Q2NNR5).
T1 sequence (Q2NNR5 whole entry): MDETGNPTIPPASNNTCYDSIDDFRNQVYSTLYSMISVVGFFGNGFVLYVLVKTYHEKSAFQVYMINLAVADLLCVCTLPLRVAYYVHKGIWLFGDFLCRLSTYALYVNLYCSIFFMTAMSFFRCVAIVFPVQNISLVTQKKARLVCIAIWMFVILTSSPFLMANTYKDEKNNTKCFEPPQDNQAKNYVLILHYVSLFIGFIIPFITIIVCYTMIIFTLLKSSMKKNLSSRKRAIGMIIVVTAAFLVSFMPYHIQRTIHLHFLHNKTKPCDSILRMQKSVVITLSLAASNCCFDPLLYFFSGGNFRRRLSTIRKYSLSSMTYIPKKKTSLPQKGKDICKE
In words: Compound was tested for its inhibitory activity against specific binding of [3H]LTD4 to guinea pig lung membrane. The format is tissue-based.
`Clc1ccc2ccc(/C=C/c3ccc(CN4CCc5cccc(CCc6nnn[nH]6)c54)cc3)nc2c1` gave an inhibition constant Ki of 31.6 nM.

In the case of `Clc1ccc2ccc(/C=C/c3cccc(CN4CCc5cccc(OCc6nn[nH]n6)c54)c3)nc2c1`, the affinity, expressed as Ki, was 5.01 nM.

A further experiment relates to Cavia porcellus. In words: Inhibition of aerosol administered LTD4-induced airway obstruction after oral administration in guinea pig 6 hr after administration. The experiment is classed as functional.
In turn, `Clc1ccc2ccc(/C=C/c3cccc(Cn4ccc5cccc(CCc6nnn[nH]6)c54)c3)nc2c1` had an Inhibition of 21%.

`Clc1ccc2ccc(COc3ccc(CN4CCc5cccc(CCc6nnn[nH]6)c54)cc3)nc2c1` gave an Inhibition of 81%.

With `Clc1ccc2ccc(/C=C/c3cccc(CN4CCc5cccc(CCc6nnn[nH]6)c54)c3)nc2c1`, the Inhibition came out at 74%.

A further experiment deals with T2, Cysteinyl leukotriene receptor 1 (Cavia porcellus) (UniProt Q2NNR5).
T2 sequence (whole entry): T1 sequence (Q2NNR5 whole entry)
The experiment can be described thus: Compound was tested for its inhibitory activity against specific binding of [3H]LTD4 to guinea pig trachea. The format is tissue-based.
In turn, `Clc1ccc2ccc(COc3cccc(CN4CCc5cccc(CCc6nnn[nH]6)c54)c3)nc2c1` came in with a pKB of 7.8.

For `c1cc(CCc2nnn[nH]2)c2c(c1)CCN2Cc1ccc(OCc2ccc3ccccc3n2)cc1`, the negative-log KB (pKB) came out at 7.9.

`Clc1ccc2ccc(COc3ccc(CN4CCc5cccc(CCc6nnn[nH]6)c54)cc3)nc2c1`: the pKB amounted to 7.6.

With `Clc1ccc2ccc(/C=C/c3cccc(CN4CCc5cccc(CCc6nnn[nH]6)c54)c3)nc2c1`, the negative-log KB (pKB) worked out at 7.

For the next experiment, the target named is T2, Cysteinyl leukotriene receptor 1 (Cavia porcellus). In words: Compound was tested for its inhibitory activity against specific binding of [3H]LTD4 to guinea pig ileum. The experiment is classed as tissue-based.
`Clc1ccc2ccc(COc3cccc(CN4CCc5cccc(CCc6nnn[nH]6)c54)c3)nc2c1` displayed a negative logarithm of the KB (pKB) of 8.4.

The compound `C(=C\c1ccc2ccccc2n1)/c1cccc(CN2CCc3cccc(CCc4nnn[nH]4)c32)c1` gave a pKB of 8.6.

In turn, `Clc1ccc2ccc(/C=C/c3ccc(CN4CCc5cccc(CCc6nnn[nH]6)c54)cc3)nc2c1` returned a pKB of 8.6.

The compound `c1cc(CCc2nnn[nH]2)c2c(c1)CCN2Cc1ccc(OCc2ccc3ccccc3n2)cc1` displayed a pKB of 8.3.

Compound `Clc1ccc2ccc(/C=C/c3cccc(CN4CCc5cccc(OCc6nn[nH]n6)c54)c3)nc2c1` had a pKB of 8.6.

In the case of `Clc1ccc2ccc(COc3ccc(CN4CCc5cccc(CCc6nnn[nH]6)c54)cc3)nc2c1`, the pKB was determined as 8.5. The pKB values of the last two compounds are within 0.2 log units of each other.

`Clc1ccc2ccc(/C=C/c3cccc(CN4CCc5cccc(CCc6nnn[nH]6)c54)c3)nc2c1` yielded a pKB of 8.6.

Another experiment relates to Cavia porcellus. In words: Inhibition of aerosol administered LTD4-induced airway obstruction after oral administration in guinea pig 2 hr after administration. The format is functional.
Compound `Clc1ccc2ccc(COc3ccc(Cn4ccc5cccc(CCc6nnn[nH]6)c54)cc3)nc2c1` gave an Inhibition of 16%.

Compound `Clc1ccc2ccc(/C=C/c3cccc(Cn4ccc5cccc(CCc6nnn[nH]6)c54)c3)nc2c1` yielded an Inhibition of 69%.

On to `Clc1ccc2ccc(COc3ccc(CN4CCc5cccc(CCc6nnn[nH]6)c54)cc3)nc2c1`, for which the Inhibition was 51%.

For `Clc1ccc2ccc(/C=C/c3cccc(CN4CCc5cccc(CCc6nnn[nH]6)c54)c3)nc2c1`, the Inhibition was determined as 91%.
